Laboratory results published in patent publication US20140073760A1, “USE OF AN ANG-(1-7) RECEPTOR AGONIST IN ACUTE LUNG INJURY” (Charite-Universitatsmedizin Berlin, priority 2008, published 2014).
Entries after “also recorded” stand apart in the source; their conditions may differ. Non-standard residues stand in square brackets, D forms with d. No end group written: not given here.

System: oleic acid induced acute lung injury
Experiment: Oleic acid induced acute lung injury (ALI) in anesthetized, ventilated rats
Assay type: in vivo, male Sprague-Dawley rats
Details: rat
Description: Experiments were performed in male Sprague-Dawley rats (Charles River Wiga GmbH, Sulzfeld, Germany) with a body weight (bw) of 330-360 g. Animals received care in accordance with the Guide for the Care and Use of Laboratory Animals (Institute of Laboratory Animal Resources, 7th edition 1996). The study was approved by the local animal care and use committee.
Rats were anesthetized by intraperitoneal injection of medetomidine (0.5 mg/kg bw, Domitor®, Dr. E. Graeub AG, Basel, Switzerland), fentanyl (0.05 mg/kg bw, JanssenCilag, Neuss, Germany) and midazolam (5 mg/kg bw, Dormicum®, Roche, Basel, Switzerland) as previously described (17). Following tracheotomy, the trachea was cannulated and ventilation was established (Advanced Animal Respirator, TSE Systems GmbH, Bad Homburg, Germany) with a tidal volume of 6 ml/kg bw at 80 breaths/min. Catheters (internal diameter 0.58 mm; Sims Portex Ltd., Hythe, United Kingdom) were introduced into the left carotid artery and the right internal jugular vein for monitoring of arterial blood pressure (AP), fluid replacement and drug delivery as previously described (18). An ultrasonic flowprobe (Transonic®, Transonic Systems Inc., Ithaca, N.Y.) was placed around the ascending aorta distal to the branching of the coronary arteries for continuous monitoring of cardiac output (CO). After median thoracotomy, a catheter was introduced via the right ventricle into the pulmonary artery for measurement of pulmonary artery pressure (PAP). AP, PAP and CO were continuously recorded by the software package DasyLab 32 (DasyLab, Moenchengladbach, Germany). Pulmonary vascular resistance (PVR) was calculated as arteriovenous pressure differences over flow under the assumption of a constant left atrial pressure of 2 mmHg.
In group 2 (OA), ALI was induced by intravenous infusion of 0.2 mg/kg oleic acid (Sigma, Munich, Germany) over 30 min in the absence of any treatment. In group 3 (OA+Ang-(1-7)), ALI was induced as in group II, and infusion of Ang-(1-7) at 5 pmol/kg per min was initiated immediately after ALI induction. In group 4 (OA+AVE0991), ALI was induced as in group II, and infusion of AVE0991 at 500 pmol/kg per min was initiated immediately after ALI induction. In two additional groups of n=6 each, in which only myeloperoxidase (MPO) activity was measured, infusion of the Ang-(1-7) receptor blocker A779 (10 pmol/kg per min) was initiated either alone (group 5) or in combination with Ang-(1-7) (5 pmol/kg per min; group 6) immediately after induction of ALI.
After surgical preparation and hemodynamic stabilization over at least 15 min, baseline hemodynamics were recorded and arterial blood gases analyzed (RapidLab 348; Chiron Diagnostics GmbH, Fernwald, Germany). Removed blood volume was replaced by hydroxyethyl starch (6% hydroxyethyl starch 200/0.6; Fresenius, Bad Homburg, Germany). Immediately after baseline recordings, 0.2 mg/kg oleic acid was infused intravenously over 30 min in groups II-VI or an equal volume of 0.9% NaCl in group I. In all groups, measurements were repeated in 60 min intervals up to a total of 4 h at which time animals were sacrificed by exsanguination. After in situ ligation of the right main bronchus, lungs were excised and processed for determination of wet-to-dry weight ratio and myeloperoxidase (MPO) activity as described below.
For determination of lung water content, wet-to-dry weight ratio was measured by use of the microwave drying technique (18). Recruitment of inflammatory cells was analyzed by measurements of MPO activity in lung homogenates as previously described (19). In brief, MPO activity was determined by a 3,3′-5,5′-tetramethylbenzidine (TMB)-based photometric assay, compared to appropriate standard curves, and expressed as units per gram lung tissue (U/g).
All data are presented as mean±SEM. Data were tested by Kruskal-Wallis test for differences between groups. Statistical significance was assumed at P<0.05.

Substance	rescue effect of Ang-(1-7) infusion on OA-induced ALI (lung MPO activity) (A779 10 pmol/kg per min in combination with Ang-(1-7) 5 pmol/kg per min after OA, only MPO measured)	OA-induced ALI (lung MPO activity) (A779 infusion 10 pmol/kg per min alone after OA, only MPO measured)	OA-induced change in lung wet-to-dry weight ratio (Ang-(1-7) infusion 5 pmol/kg per min after OA, 4 h, FIG. 1(B))	systemic arterial pressure (systemic hypotension in OA-infused rats) (Ang-(1-7) infusion 5 pmol/kg per min after OA, 4 h, FIG. 1(C))	OA-induced change in pulmonary vascular resistance (Ang-(1-7) infusion 5 pmol/kg per min after OA, 4 h, FIG. 1(D))	OA-induced change in lung MPO activity (Ang-(1-7) infusion 5 pmol/kg per min after OA, 4 h, lung homogenates, FIG. 1(A))	development of OA-induced ALI (OA 0.2 mg/kg i.v. over 30 min, Ang-(1-7) infusion 5 pmol/kg per min started immediately after ALI induction, 4 h)	lung oedema and inflammation in oleic-acid induced ALI (infusion after OA, conclusion of the study)
Asp^1-Arg^2-Val^3-Tyr^4-Ile^5-His^6-D-Ala^7 (DRVYIH[dA]) [A779, reference compound]	blocks the rescue effect of Ang-(1-7) infusion; also recorded: lost after Mas blockade	aggravates OA-induced ALI; also recorded: aggravated after Mas blockade	–	–	–	–	–	–
Asp^1-Arg^2-Val^3-Tyr^4-Ile^5-His^6-Pro^7 [Ang-(1-7)]	–	–	abrogated OA-induced changes	attenuated systemic hypotension	abrogated OA-induced changes	abrogated OA-induced changes	completely prevented the development of OA-induced ALI	completely prevents lung oedema and inflammation
